The record followed here is patent US7482488B2, “Aryl and heteroaryl propene amides, derivatives thereof and therapeutic uses thereof” (Temple University - Of The Commonwealth System of Higher …, priority 2002, dated 2009).

Common to all, as to type: cell-based, human
For one experiment, the system named is BT20 (breast cancer). Nature of the experiment: Effect on tumor cell lines: viable cell count by trypan blue exclusion, BT20. To be noted: BT20 breast cancer cells; 100 nM to 10 μM; viable cells counted 96 hours after treatment. The procedure:
(§1) The effect of the aromatic acrylamides on normal fibroblasts and on tumor cells was determined by the assay described by Latham et al.,Oncogene 12:827-837 (1996). Normal diploid lung human fibroblasts (HFL-1) or tumor cells (BT20(breast cancer), DLD1 (colorectal cancer), DU145 (prostate cancer and K562 (chronic myelogenous leukemia )) were plated in 6-well dishes at a cell density of 1.0 ×10^5cells per 35-mm^2 well. The plated cells were treated 24 hours later with a compound of the invention, dissolved in DMSO at multiple concentrations ranging from 100 nM to 10 μM. The total number of viable cells was determined 96 hours later by trypsinizing the wells and counting the number of viable cells, as determined by trypan blue exclusion, using a hemacytometer. Normal HFL cells were treated with the same compounds under the same conditions of concentration and time.
(§2) Representative examples of activities of compounds of the invention in cell lines: BT20(breast cancer), DLD1 (colorectal cancer), DU145 (prostate cancer and K562 (chronic myelogenous leukemia ) are listed in Table 5.

The next experiment relates to DU145 (prostate cancer). Nature of the experiment: Effect on tumor cell lines: viable cell count by trypan blue exclusion, DU145. As to conditions: DU145 prostate cancer cells; 100 nM to 10 μM; viable cells counted 96 hours after treatment. The procedure: as §1, §2
For experiment [1], the system named is K562 (chronic myelogenous leukemia). Nature of the experiment: Effect on tumor cell lines: viable cell count by trypan blue exclusion, K562. To be noted: K562 chronic myelogenous leukemia cells; 100 nM to 10 μM; viable cells counted 96 hours after treatment. The procedure: as §1, §2
Another experiment deals with DLD1 (colorectal cancer). Nature of the experiment: Effect on tumor cell lines: viable cell count by trypan blue exclusion, DLD1. To be noted: DLD1 colorectal cancer cells; 100 nM to 10 μM; viable cells counted 96 hours after treatment. The procedure: as §1, §2

In the case of `COc1ccc(NC(=O)/C=C/c2c(F)c(F)c(F)c(F)c2F)cc1[N+](=O)[O-]` [Example 7, (E)-N-(4-Methoxy-3-nitrophenyl)-3-(2,3,4,5,6-pentafluorophenyl)-2-propenamide], the BT20 activity entry in the experiment on BT20 (breast cancer) is recorded as “++ (++ denotes activity at 10 μM)”. Further, the DU145 activity result in the experiment with DU145 (prostate cancer) is “++ (++ denotes activity at 10 μM)”. Besides, the K562 activity result in experiment [1] was “++ (++ denotes activity at 10 μM)”. The DLD1 activity result in the experiment with DLD1 (colorectal cancer) is on record as “++ (++ denotes activity at 10 μM)”.

Consider `COc1cc(/C=C/C(=O)Nc2ccc(Br)cc2)ccc1F` [Example 12, (E)-N-(4-Bromophenyl)-3-(3-methoxy-4fluorophenyl)-2-propenamide], for which the BT20 activity entry with BT20 (breast cancer) is listed as “++ (++ denotes activity at 10 μM)”. Also, the DU145 activity result with DU145 (prostate cancer) is reported as “++ (++ denotes activity at 10 μM)”. Moreover, the K562 activity result in experiment [1] is on record as “++ (++ denotes activity at 10 μM)”. The DLD1 activity entry in the experiment on DLD1 (colorectal cancer) is listed as “++ (++ denotes activity at 10 μM)”.

On to `COc1ccc(NC(=O)/C=C/c2ccc(N)c(F)c2)cc1N` [Example 9, (E)-N-(4-Methoxy-3-aminophenyl)-3-(3-fluoro-4-aminophenyl)-2-propenamide], for which the BT20 activity entry in the experiment on BT20 (breast cancer) is given as “++ (++ denotes activity at 10 μM)”. In the experiment with DU145 (prostate cancer), the DU145 activity result is on record as “++ (++ denotes activity at 10 μM)”. Besides, in experiment [1], the K562 activity entry is on record as “++ (++ denotes activity at 10 μM)”. In the experiment with DLD1 (colorectal cancer), the DLD1 activity entry is given as “++ (++ denotes activity at 10 μM)”.

In the case of `COc1ccc(NC(=O)/C=C/c2c(OC)cccc2OC)cc1` [Example 2, (E)-N-(4-Methophenyl)-3-(2,6-dimethoxypheyl)-2-propenamide], the BT20 activity result in the experiment on BT20 (breast cancer) is reported as “+ (+ denotes activity at >10 μM)”. In the experiment with DU145 (prostate cancer), the DU145 activity result is listed as “+ (+ denotes activity at >10 μM)”. In experiment [1], the K562 activity entry is listed as “+ (+ denotes activity at >10 μM)”. For the same molecule, the DLD1 activity result with DLD1 (colorectal cancer) is listed as “+ (+ denotes activity at >10 μM)”.

For the molecule `COc1ccc(NC(=O)/C=C/c2cc(OC)c(OC)c(OC)c2)cc1N` [Example 4, (E)-N-(4-Methoxy-3-aminophenyl)-3-(3,4,5-trimethoxyphenyl)-2-propenamide], in the experiment on BT20 (breast cancer), the BT20 activity result was “+ (+ denotes activity at >10 μM)”. The DU145 activity result in the experiment with DU145 (prostate cancer) is on record as “+ (+ denotes activity at >10 μM)”. In addition, in experiment [1], the K562 activity entry was “+ (+ denotes activity at >10 μM)”. Besides, the DLD1 activity result with DLD1 (colorectal cancer) is “+ (+ denotes activity at >10 μM)”.

Turning to `COc1ccc(NC(=O)/C=C/c2c(OC)cc(OC)cc2OC)cc1` [Example 1, (E)-N-(4-Methoxyphenyl)-3-(2,4,6-trimethoxyphenyl)-2-propen-amide], the BT20 activity result in the experiment with BT20 (breast cancer) is listed as “+++ (+++ denotes activity at 100 nM)”. Besides, the DU145 activity result in the experiment on DU145 (prostate cancer) was “+++ (+++ denotes activity at 100 nM)”. Besides, in experiment [1], the K562 activity entry was “+++ (+++ denotes activity at 100 nM)”. The DLD1 activity result in the experiment with DLD1 (colorectal cancer) was “+++ (+++ denotes activity at 100 nM)”.

Turning to `COc1cc(OC)c(/C=C/C(=O)Nc2ccc(OC)c(N)c2)c(OC)c1` [Example 6, (E)-N-(4-methoxy-3-aminophenyl)-3-(2,4,6-trimethoxyphenyl)-2-propenamide], in the experiment with BT20 (breast cancer), the BT20 activity entry is “+++ (+++ denotes activity at 100 nM)”. Moreover, the DU145 activity result with DU145 (prostate cancer) is recorded as “+++ (+++ denotes activity at 100 nM)”. Further, the K562 activity result in experiment [1] is “+++ (+++ denotes activity at 100 nM)”. In addition, the DLD1 activity result in the experiment on DLD1 (colorectal cancer) is reported as “+++ (+++ denotes activity at 100 nM)”.

Regarding `N#Cc1cc(/C=C/C(=O)Nc2ccc(Br)cc2)ccc1F` [Example 13, (E)-N-(4-Bromophenyl)-3-(3-cyano-4-fluorophenyl)-2-propenamide], in the experiment on BT20 (breast cancer), the BT20 activity entry is reported as “++ (++ denotes activity at 10 μM)”. The DU145 activity entry with DU145 (prostate cancer) was “++ (++ denotes activity at 10 μM)”. In experiment [1], the K562 activity entry is on record as “++ (++ denotes activity at 10 μM)”. Moreover, the DLD1 activity entry with DLD1 (colorectal cancer) was “++ (++ denotes activity at 10 μM)”.

Regarding `COc1cc(OC)c(/C=C/C(=O)Nc2ccc(OC)c(O)c2)c(OC)c1` [Example 11, (E)-N-(3-Hydoxy-4-methoxyphenyl)-3-(2,4,6-trimethoxyphenyl)-2-propenamide], in the experiment with BT20 (breast cancer), the BT20 activity result was “++++ (++++ denotes activity at <100 nm)”. Also, the DU145 activity entry with DU145 (prostate cancer) is given as “++++ (++++ denotes activity at <100 nm)”. Besides, in experiment [1], the K562 activity result is listed as “++++ (++++ denotes activity at <100 nm)”. For the same molecule, in the experiment with DLD1 (colorectal cancer), the DLD1 activity result is “++++ (++++ denotes activity at <100 nm)”.

With `COc1cc(OC)c(/C=C/C(=O)Nc2ccc(OC)c(NC(=O)C(F)(F)F)c2)c(OC)c1` [Example 10, (E)-N-(4-Methoxy-3-trifluoroacetamidophenyl)-3-(2,4,6-trimethoxyphenyl)-2-propenamide], the BT20 activity result in the experiment with BT20 (breast cancer) is “+++ (+++ denotes activity at 100 nM)”. Further, the DU145 activity result in the experiment on DU145 (prostate cancer) is listed as “+++ (+++ denotes activity at 100 nM)”. For the same molecule, the K562 activity entry in experiment [1] is recorded as “+++ (+++ denotes activity at 100 nM)”. The DLD1 activity result in the experiment with DLD1 (colorectal cancer) is recorded as “+++ (+++ denotes activity at 100 nM)”.
